Test results reported in US20120220562A1, “Anti-Viral Compounds” (ABBOTT LABAORATORIES, priority 2011, published 2012).

Test system: HCV 1b-Con1 replicon
Experiment: HCV 1b-Con1 replicon assay in the presence of 5% FBS
Type: cell-based
Details: Hepatitis C virus

SMILES | EC50 [nM]
COC(=O)N[C@H](C(=O)N1CCC[C@H]1c1nc2c(C)c([C@H]3CC[C@@H](c4ccc5[nH]c([C@@H]6CCCN6C(=O)[C@@H](NC(=O)OC)C(C)C)nc5c4C)N3c3ccc(C(C)(C)C)cc3)ccc2[nH]1)C(C)C [Example 6.8, methyl {(2S)-1-[(2S)-2-{5-[(2R,5S)-1-(4-tert-butylphenyl)-5-{2-[(2S)-1-{(2S)-2-[(methoxycarbonyl)amino]-3-methylbutanoyl}pyrrolidin-2-yl]-4-methyl-1H-benzimidazol-5-yl}pyrrolidin-2-yl]-4-methyl-1H-benzimidazol-2-yl}pyrrolidin-1-yl]-3-methyl-1-oxobutan-2-yl}carbamate] | < 0.1
COC(=O)N[C@H](C(=O)N1CCC[C@H]1c1nc2cc([C@H]3CC[C@H](c4ccc5[nH]c([C@@H]6CCCN6C(=O)[C@@H](NC(=O)OC)C(C)C)nc5c4)N3c3cc(F)c(N4CCCCC4c4ccccc4)c(F)c3)ccc2[nH]1)C(C)C (stereo partly drawn) [Example 4.50, methyl {(2S)-1-[(2S)-2-{5-[(2R,5R)-1-[3,5-difluoro-4-(2-phenylpiperidin-1-yl)phenyl]-5-{2-[(2S)-1-{(2S)-2-[(methoxycarbonyl)amino]-3-methylbutanoyl}pyrrolidin-2-yl]-1H-benzimidazol-5-yl}pyrrolidin-2-yl]-1H-benzimidazol-2-yl}pyrrolidin-1-yl]-3-methyl-1-oxobutan-2-yl}carbamate] | < 0.1
CCC1(COc2c(F)cc(N3[C@@H](c4ccc5nc([C@@H]6CCCN6C(=O)[C@@H](NC(=O)OC)C(C)C)[nH]c5c4)CC[C@@H]3c3ccc4nc([C@@H]5CCCN5C(=O)[C@@H](NC(=O)OC)C(C)C)[nH]c4c3)cc2F)COC1 [Example 2.5, methyl {(2S)-1-[(2S)-2-{6-[(2R,5R)-1-{4-[(3-ethyloxetan-3-yl)methoxy]-3,5-difluorophenyl}-5-{2-[(2S)-1-{(2S)-2-[(methoxycarbonyl)amino]-3-methylbutanoyl}pyrrolidin-2-yl]-1H-benzimidazol-6-yl}pyrrolidin-2-yl]-1H-benzimidazol-2-yl}pyrrolidin-1-yl]-3-methyl-1-oxobutan-2-yl}carbamate] | < 0.1
COC(=O)N[C@H](C(=O)N1CCC[C@H]1c1nc2cc([C@H]3CC[C@H](c4ccc5[nH]c([C@@H]6CCCN6C(=O)[C@@H](NC(=O)OC)C(C)C)nc5c4)N3c3ccc(-c4ccccc4)cc3)ccc2[nH]1)C(C)C [Example 3.5, methyl {(2S)-1-[(2S)-2-{5-[(2R,5R)-1-(biphenyl-4-yl)-5-{2-[(2S)-1-{(2S)-2-[(methoxycarbonyl)amino]-3-methylbutanoyl}pyrrolidin-2-yl]-1H-benzimidazol-5-yl}pyrrolidin-2-yl]-1H-benzimidazol-2-yl}pyrrolidin-1-yl]-3-methyl-1-oxobutan-2-yl}carbamate] | < 0.1
COC(=O)N[C@H](C(=O)N1CCC[C@H]1c1nc2cc([C@H]3CC[C@H](c4cc5nc([C@@H]6CCCN6C(=O)[C@@H](NC(=O)OC)C6CCOCC6)[nH]c5cc4F)N3c3cc(F)c(N4CCCCC4)c(F)c3)c(F)cc2[nH]1)C1CCOCC1 [Example 3.35, dimethyl ({(2R,5R)-1-[3,5-difluoro-4-(piperidin-1-yl)phenyl]pyrrolidine-2,5-diyl}bis {(6-fluoro-1H-benzimidazole-5,2-diyl)(2S)pyrrolidine-2,1-diyl[(1S)-2-oxo-1-(tetrahydro-2H-pyran-4-yl)ethane-2,1-diyl]})biscarbamate] | < 0.1
COC(=O)N[C@H](C(=O)N1CCC[C@H]1c1nc2cc([C@H]3CC[C@H](c4cc5nc([C@@H]6CCCN6C(=O)[C@@H](NC(=O)OC)C(C)C)[nH]c5cc4F)N3c3cc(F)c(N4CCN(c5ccc(C(F)(F)F)cc5)CC4)c(F)c3)c(F)cc2[nH]1)C(C)C [Example 4.42, methyl {(2S)-1-[(2S)-2-{5-[(2R,5R)-1-(3,5-difluoro-4-{4-[4-(trifluoromethyl)phenyl]piperazin-1-yl}phenyl)-5-{6-fluoro-2-[(2S)-1-{(2S)-2-[(methoxycarbonyl)amino]-3-methylbutanoyl}pyrrolidin-2-yl]-1H-benzimidazol-5-yl}pyrrolidin-2-yl]-6-fluoro-1H-benzimidazol-2-yl}pyrrolidin-1-yl]-3-methyl-1-oxobutan-2-yl}carbamate] | < 0.1
COC(=O)N[C@H](C(=O)N1CCC[C@H]1c1nc2cc([C@H]3CC[C@H](c4cc5nc([C@@H]6CCCN6C(=O)[C@@H](NC(=O)OC)[C@@H](C)OC)[nH]c5cc4F)N3c3cc(F)c(N4CCN(c5ccc(C(F)(F)F)cc5)CC4)c(F)c3)c(F)cc2[nH]1)[C@@H](C)OC [Example 6.15, methyl {(2S,3R)-1-[(2S)-2-{5-[(2R,5R)-1-(3,5-difluoro-4-{4-[4-(trifluoromethyl)phenyl]piperazin-1-yl}phenyl)-5-(6-fluoro-2-{(2S)-1-[N-(methoxycarbonyl)-O-methyl-L-threonyl]pyrrolidin-2-yl}-1H-benzimidazol-5-yl)pyrrolidin-2-yl]-6-fluoro-1H-benzimidazol-2-yl}pyrrolidin-1-yl]-3-methoxy-1-oxobutan-2-yl}carbamate] | < 0.1
COC(=O)N[C@H](C(=O)N1CCC[C@H]1c1nc2cc([C@H]3CC[C@H](c4cc5nc([C@@H]6CCCN6C(=O)[C@@H](NC(=O)OC)C6CCOCC6)[nH]c5cc4F)N3c3cc(F)c(N4CCC(c5ccccc5)CC4)c(F)c3)c(F)cc2[nH]1)C1CCOCC1 [Example 4.39, dimethyl ({(2R,5R)-1-[3,5-difluoro-4-(4-phenylpiperidin-1-yl)phenyl]pyrrolidine-2,5-diyl}bis{(6-fluoro-1H-benzimidazole-5,2-diyl)(2S)pyrrolidine-2,1-diyl[(1S)-2-oxo-1-(tetrahydro-2H-pyran-4-yl)ethane-2,1-diyl]})biscarbamate] | < 0.1
COC(=O)N[C@H](C(=O)N1CCC[C@H]1c1nc2cc([C@H]3CC[C@H](c4ccc5[nH]c([C@@H]6CCCN6C(=O)[C@@H](NC(=O)OC)C(C)C)nc5c4)N3c3ccc(-c4ncco4)cc3)ccc2[nH]1)C(C)C [Example 2.1, methyl {(2S)-1-[(2S)-2-(5-{(2R,5R)-5-{2-[(2S)-1-{(2S)-2-[(methoxycarbonyl)amino]-3-methylbutanoyl}pyrrolidin-2-yl]-1H-benzimidazol-5-yl}-1-[4-(1,3-oxazol-2-yl)phenyl]pyrrolidin-2-yl}-1H-benzimidazol-2-yl)pyrrolidin-1-yl]-3-methyl-1-oxobutan-2-yl}carbamate] | < 0.1
COC(=O)N[C@H](C(=O)N1C[C@H](F)C[C@H]1c1nc2cc([C@H]3CC[C@H](c4ccc5[nH]c([C@@H]6C[C@@H](F)CN6C(=O)[C@@H](NC(=O)OC)C(C)C)nc5c4)N3c3cc(F)c(N4CCCCC4)c(F)c3)ccc2[nH]1)C(C)C [Example 4.59, methyl {(2S)-1-[(2S,4R)-2-{5-[(2R,5R)-1-[3,5-difluoro-4-(piperidin-1-yl)phenyl]-5-{2-[(2S,4R)-4-fluoro-1-{(2S)-2-[(methoxycarbonyl)amino]-3-methylbutanoyl}pyrrolidin-2-yl]-1H-benzimidazol-5-yl}pyrrolidin-2-yl]-1H-benzimidazol-2-yl}-4-fluoropyrrolidin-1-yl]-3-methyl-1-oxobutan-2-yl}carbamate] | < 0.1
COC(=O)N[C@@H](C(=O)N1c2ccccc2C[C@H]1c1nc2cc([C@H]3CC[C@H](c4ccc5[nH]c([C@@H]6Cc7ccccc7N6C(=O)[C@H](NC(=O)OC)C(C)C)nc5c4)N3c3cc(F)c(N4CCCCC4)c(F)c3)ccc2[nH]1)C(C)C [Example 3.25, methyl {(2R)-1-[(2S)-2-{5-[(2R,5R)-1-[3,5-difluoro-4-(piperidin-1-yl)phenyl]-5-{2-[(2S)-1-{(2R)-2-[(methoxycarbonyl)amino]-3-methylbutanoyl}-2,3-dihydro-1H-indol-2-yl]-1H-benzimidazol-5-yl}pyrrolidin-2-yl]-1H-benzimidazol-2-yl}-2,3-dihydro-1H-indol-1-yl]-3-methyl-1-oxobutan-2-yl}carbamate] | < 0.1
COC(=O)N[C@H](C(=O)N1CCC[C@H]1c1nc2cc([C@H]3CC[C@H](c4ccc5nc([C@@H]6CCCN6C(=O)[C@@H](NC(=O)OC)C(C)C)[nH]c5c4)N3c3cc(F)c(N4CCCC(c5ccccc5)C4)c(F)c3)ccc2[nH]1)C(C)C (stereo partly drawn) [Example 4.32, methyl {(2S)-1-[(2S)-2-{5-[(2R,5R)-1-[3,5-difluoro-4-(3-phenylpiperidin-1-yl)phenyl]-5-{2-[(2S)-1-{(2S)-2-[(methoxycarbonyl)amino]-3-methylbutanoyl}pyrrolidin-2-yl]-1H-benzimidazol-6-yl}pyrrolidin-2-yl]-1H-benzimidazol-2-yl}pyrrolidin-1-yl]-3-methyl-1-oxobutan-2-yl}carbamate] | < 0.1
COC(=O)N[C@H](C(=O)N1CCC[C@H]1c1nc2cc([C@H]3CC[C@H](c4ccc5[nH]c([C@@H]6CCCN6C(=O)[C@@H](NC(=O)OC)C6CCOCC6)nc5c4)N3c3cc(F)c(N4CCCCC4)c(F)c3)ccc2[nH]1)C1CCOCC1 [Example 3.18, dimethyl ({(2R,5R)-1-[3,5-difluoro-4-(piperidin-1-yl)phenyl]pyrrolidine-2,5-diyl}bis{1H-benzimidazole-5,2-diyl(2S)pyrrolidine-2,1-diyl [(1S)-2-oxo-1-(tetrahydro-2H-pyran-4-yl)ethane-2,1-diyl]})biscarbamate] | < 0.1
COC(=O)N[C@H](C(=O)N1CCC[C@H]1c1nc2cc([C@H]3CC[C@H](c4ccc5[nH]c([C@@H]6CCCN6C(=O)[C@@H](NC(=O)OC)C6CCCCC6)nc5c4)N3c3cc(F)c(N4CCC(c5ccccc5)CC4)c(F)c3)ccc2[nH]1)C1CCCCC1 [Example 3.22, dimethyl ({(2R,5R)-1-[3,5-difluoro-4-(4-phenylpiperidin-1-yl)phenyl]pyrrolidine-2,5-diyl}bis{1H-benzimidazole-5,2-diyl(2S)pyrrolidine-2,1-diyl [(1S)-1-cyclohexyl-2-oxoethane-2,1-diyl]})biscarbamate] | < 0.1
COC(=O)N[C@H](C(=O)N1CCC[C@H]1c1nc2cc([C@H]3CC[C@H](c4ccc5[nH]c([C@@H]6CCCN6C(=O)[C@@H](NC(=O)OC)C(C)C)nc5c4)N3c3cc(F)c(N4[C@H](C)CCC[C@@H]4C)c(F)c3)ccc2[nH]1)C(C)C [Example 4.6, methyl {(2S)-1-[(2S)-2-{5-[(2R,5R)-1-{4-[(2R,6S)-2,6-dimethylpiperidin-1-yl]-3,5-difluorophenyl}-5-{2-[(2S)-1-{(2S)-2-[(methoxycarbonyl)amino]-3-methylbutanoyl}pyrrolidin-2-yl]-1H-benzimidazol-5-yl}pyrrolidin-2-yl]-1H-benzimidazol-2-yl}pyrrolidin-1-yl]-3-methyl-1-oxobutan-2-yl}carbamate] | < 0.1
